Source: patent US8383094B2, “Hepatitis C virus inhibitors” (Bristol-Myers Squibb Company, priority 2008, dated 2013)

Each compound was assayed on HCV 1b genotype (assay: HCV Replicon assay (HCV-neo replicon cells, wild-type)). Details: HCV 1b genotype replicon; read-out: 1b EC50 (in μM or range).
Type: cell-based

Row | SMILES | EC50 [nM]
1 | COC(=O)N[C@@H](C(=O)N1CCC[C@H]1C(=O)Nc1ccc(C#Cc2ccc(NC(=O)[C@@H]3CCCN3C(=O)[C@H](NC(=O)OC)c3ccccc3)cc2)cc1)c1ccccc1 [VN55, Dimethyl (1,2-ethynediylbis(4,1-phenylenecarbamoyl(2S)-2,1-pyrrolidinediyl((1R)-2-oxo-1-phenyl-2,1-ethanediyl)))biscarbamate] | 0.013

Same assay, conditions: Hepatitis C virus, HCV 1b genotype replicon; range class A-D; read-out: 1b EC50 (in μM or range)

Row | SMILES | EC50 [nM]
2 | O=C(Nc1ccc(C#Cc2ccc(NC(=O)[C@@H]3CCCN3C(=O)[C@H]3CCCO3)cc2)cc1)C1CCC1 [Example D24, N-(4-((4-((cyclobutylcarbonyl)amino)phenyl)ethynyl)phenyl)-1-((2R)-tetrahydro-2-furanylcarbonyl)-L-prolinamide] | 1000 to 10000
3 | CC(=O)O[C@@H]1C[C@@H](C(=O)Nc2ccc(C#Cc3ccc(NC(=O)[C@@H]4CCCN4C(C)=O)cc3)cc2)N(C(=O)Cc2ccccc2)C1 [Example D27, (3R,5S)-5-((4-((4-((((2S)-1-Acetyl-2-pyrrolidinyl)carbonyl)amino)phenyl)ethynyl)phenyl)carbamoyl)-1-(phenylacetyl)-3-pyrrolidinyl acetate] | 4.57 to 99
4 | C[C@@H](C(=O)N1CCC[C@H]1C(=O)Nc1ccc(C#Cc2ccc(NC(=O)[C@@H]3CCCN3C(=O)[C@H](C)c3ccccc3)cn2)nc1)c1ccccc1 [Example D54, (2S,2′S)-N,N′-(1,2-ethynediyldi-2,5-pyridinediyl)bis(1-((2R)-2-phenylpropanoyl)-2-pyrrolidinecarboxamide)] | < 4.57
5 | CN1CCc2ccccc2[C@@H]1C(=O)N1CCC[C@H]1C(=O)Nc1ccc(C#Cc2ccc(NC(=O)[C@@H]3CCCN3C(=O)[C@H]3c4ccccc4CCN3C)cc2)cc1 [VN32, (R,2S,2′S)-N,N′-(4,4′-(ethyne-1,2-diyl)bis(4,1-phenylene))bis(1-((R)-2-methyl-1,2,3,4-tetrahydroisoquinoline-1-carbonyl)pyrrolidine-2-carboxamide)] | 100 to 999
6 | CC(=O)N[C@@H](C)C(=O)N1CCC[C@H]1C(=O)Nc1ccc(C#Cc2ccc(NC(=O)[C@@H]3CCCN3C(=O)[C@H](C)NC(C)=O)cc2)cc1 [VN15, (2S,2′S)-N,N′-(1,2-ethynediyldi-4,1-phenylene)bis(1-((2S)-2-acetamidopropanoyl)-2-pyrrolidinecarboxamide)] | 100 to 999
7 | CN(CC(N)=O)C(C(=O)N1CCC[C@H]1C(=O)Nc1ccc(C#Cc2ccc(NC(=O)[C@@H]3CCCN3C(=O)C(c3ccccc3)N(C)CC(N)=O)cc2)cc1)c1ccccc1 (single isomer, unassigned) [VN34] | < 4.57
8 | O=C(Nc1ccc(C#Cc2ccc(NC(=O)[C@@H]3CCCN3C(=O)c3nc(Cl)cc4ccccc34)cc2)cc1)[C@@H]1CCCN1C(=O)CC1CC1 [Example D38, (2S)-1-((3-Chloro-1-isoquinolinyl)carbonyl)-N-(4-((4-((((2S)-1-(cyclopropylacetyl)-2-pyrrolidinyl)carbonyl)amino)phenyl)ethynyl)phenyl)-2-pyrrolidinecarboxamide] | 4.57 to 99
9 | CN(C)c1ccc(C#Cc2ccc(NC(=O)[C@@H]3CCCN3C(=O)[C@@H](c3ccccc3)N(C)C)cc2)cc1 [Example D60, (S)-1-((R)-2-(dimethylamino)-2-phenylacetyl)-N-(4-((4-(dimethylamino)phenyl)ethynyl)phenyl)pyrrolidine-2-carboxamide] | 100 to 999
10 | O=C(Nc1ccc(C#Cc2ccc(NC(=O)[C@@H]3CCCN3C(=O)OCc3ccccc3)cc2)cc1)[C@H]1CCCO1 [Example D21, Benzyl (2S)-2-((4-((4-(((2R)-tetrahydro-2-furanylcarbonyl)amino)phenyl)ethynyl)phenyl)carbamoyl)-1-pyrrolidinecarboxylate] | 100 to 999
11 | O=C(Nc1ccc(C#Cc2ccc(NC(=O)C3CC(=O)N(Cc4ccc(Cl)cc4)C3)cc2)cc1)C1CC(=O)N(Cc2ccc(Cl)cc2)C1 (stereo not shown) [Example D14, N,N′-(1,2-ethynediyldi-4,1-phenylene)bis(1-(4-chlorobenzyl)-5-oxo-3-pyrrolidinecarboxamide)] | 1000 to 10000
12 | O=C(Nc1ccc(C#Cc2ccc(NC(=O)[C@@H]3CCCN3C(=O)C(c3ccccc3)N3CC[C@@H](O)C3)cc2)cc1)[C@@H]1CCCN1C(=O)C(c1ccccc1)N1CC[C@@H](O)C1 (stereo partly drawn) [VN52, (2S,2′S)-N,N′-(1,2-ethynediyldi-4,1-phenylene)bis(1-(((3R)-3-hydroxy-1-pyrrolidinyl)(phenyl)acetyl)-2-pyrrolidinecarboxamide)] | < 4.57
13 | O=C(Nc1ccc(C#Cc2ccc(NC(=O)[C@@H]3CCCN3C(=O)[C@H]3CCCO3)cc2)cc1)C1CC1 [Example D6, N-(4-((4-((cyclopropylcarbonyl)amino)phenyl)ethynyl)phenyl)-1-((2R)-tetrahydro-2-furanylcarbonyl)-L-prolinamide] | 100 to 999
14 | CC(=O)N1CCC[C@H]1C(=O)Nc1ccc(C#Cc2ccc(NC(=O)[C@@H]3CCCN3C(=O)Cc3ccccc3)nc2)cc1 [Example D55, (2S)-1-Acetyl-N-(4-((6-((((2S)-1-(phenylacetyl)-2-pyrrolidinyl)carbonyl)amino)-3-pyridinyl)ethynyl)phenyl)-2-pyrrolidinecarboxamide] | 100 to 999
15 | C[C@](O)(C(=O)N1CCC[C@H]1C(=O)Nc1ccc(C#Cc2ccc(NC(=O)[C@@H]3CCCN3C(=O)[C@](C)(O)c3ccccc3)cc2)cc1)c1ccccc1 [VN2, (2S,2′S)-N,N′-(1,2-ethynediyldi-4,1-phenylene)bis(1-((2R)-2-hydroxy-2-phenylpropanoyl)-2-pyrrolidinecarboxamide)] | < 4.57
16 | CNC(C(=O)N1CCC[C@H]1C(=O)Nc1ccc(C#Cc2ccc(NC(=O)[C@@H]3CCCN3C(=O)C(NC)c3ccccc3)cc2)cc1)c1ccccc1 (stereo partly drawn) [VN30, (2S,2′S)-N,N′-(1,2-ethynediyldi-4,1-phenylene)bis(1-((methylamino)(phenyl)acetyl)-2-pyrrolidinecarboxamide)] | < 4.57
17 | O=C(Nc1ccc(C#Cc2ccc(NC(=O)[C@@H]3CCCN3C(=O)OCc3ccccc3)cc2)cc1)[C@@H]1CCCN1C(=O)OCc1ccccc1 [Example D1, Dibenzyl(2S,2′S)-2,2′-(1,2-ethynediylbis(4,1-phenylenecarbamoyl))di(1-pyrrolidinecarboxylate)] | 4.57 to 99
18 | CS(=O)(=O)N[C@@H](C(=O)N1CCC[C@H]1C(=O)Nc1ccc(C#Cc2ccc(NC(=O)[C@@H]3CCCN3C(=O)[C@H](NS(C)(=O)=O)c3ccccc3)cc2)cc1)c1ccccc1 [VN27, (2S,2′S)-N,N′-(1,2-ethynediyldi-4,1-phenylene)bis(1-((2R)-2-((methylsulfonyl)amino)-2-phenylacetyl)-2-pyrrolidinecarboxamide)] | < 4.57
19 | N#Cc1cc2ccccc2c(C(=O)N2CCC[C@H]2C(=O)Nc2ccc(C#Cc3ccc(NC(=O)[C@@H]4CCCN4C(=O)c4nc(C#N)cc5ccccc45)cc3)cc2)n1 [Example D32, (2S,2′S)-N,N′-(1,2-ethynediyldi-4,1-phenylene)bis(1-((3-cyano-1-isoquinolinyl)carbonyl)-2-pyrrolidinecarboxamide)] | 4.57 to 99
20 | O=C(Nc1ccc(C#Cc2ccc(NC(=O)C3CC3)cc2)cc1)C1CC1 [Example D3, N,N′-(4,4′-(Ethyne-1,2-diyl)bis(4,1-phenylene))dicyclopropanecarboxamide] | 4.57 to 99
21 | O=C(CC1CC1)Nc1ccc(C#Cc2ccc(NC(=O)[C@@H]3CCCN3C(=O)OCc3ccccc3)cc2)cc1 [Example D19, Benzyl (2S)-2-((4-((4-((cyclopropylacetyl)amino)phenyl)ethynyl)phenyl)carbamoyl)-1-pyrrolidinecarboxylate] | 100 to 999
22 | CC(C)(C)OC(=O)N[C@H](C(=O)N1CCC[C@H]1C(=O)Nc1ccc(C#Cc2ccc(NC(=O)[C@@H]3CCCN3C(=O)[C@@H](NC(=O)OC(C)(C)C)c3ccccc3)cc2)cc1)c1ccccc1 [VN22, Step a, di-tert-butyl(1,2-ethynediylbis(4,1-phenylenecarbamoyl(2S)-2,1-pyrrolidinediyl((1S)-2-oxo-1-phenyl-2,1-ethanediyl)))biscarbamate] | < 4.57
23 | CCN(C)C(C(=O)N1CCC[C@H]1C(=O)Nc1ccc(C#Cc2ccc(NC(=O)[C@@H]3CCCN3C(=O)C(c3ccccc3)N(C)CC)cc2)cc1)c1ccccc1 (single isomer, unassigned) [VN36] | < 4.57
24 | CC(C)(C(=O)N1CCC[C@H]1C(=O)Nc1ccc(C#Cc2ccc(NC(=O)[C@@H]3CCCN3C(=O)C(C)(C)c3ccccc3)cc2)cc1)c1ccccc1 [VN3, (2S,2′S)-N,N′-(1,2-ethynediyldi-4,1-phenylene)bis(1-(2-methyl-2-phenylpropanoyl)-2-pyrrolidinecarboxamide)] | 4.57 to 99

Same assay, conditions: Hepatitis C virus, HCV 1b genotype replicon; read-out: 1b EC50 (in μM or range)

Row | SMILES | EC50 [nM]
25 | O=C(Nc1ccc(C#Cc2ccc(NC(=O)[C@@H]3CCCN3C(=O)/C=C/c3ccccc3)cn2)nc1)[C@@H]1CCCN1C(=O)/C=C/c1ccccc1 [Example D53, (2S,2′S)-N,N′-(1,2-ethynediyldi-2,5-pyridinediyl)bis(1-((2E)-3-phenyl-2-propenoyl)-2-pyrrolidinecarboxamide)] | 2730
26 | O=C(Nc1ccc(C#Cc2ccc(NC(=O)[C@@H]3CCCN3C(=O)[C@@H](O)c3ccccc3)cc2)cc1)[C@@H]1CCCN1C(=O)c1nc(Cl)cc2ccccc12 [Example D42, (2S)-1-((3-Chloro-1-isoquinolinyl)carbonyl)-N-(4-((4-((((2S)-1-((2S)-2-hydroxy-2-phenylacetyl)-2-pyrrolidinyl)carbonyl)amino)phenyl)ethynyl)phenyl)-2-pyrrolidinecarboxamide] | 17
27 | O=C(Nc1ccc(C#Cc2ccc(NC(=O)[C@@H]3CCCN3C(=O)C(c3ccccc3)N3CCC(O)CC3)cc2)cc1)[C@@H]1CCCN1C(=O)C(c1ccccc1)N1CCC(O)CC1 (stereo partly drawn) [VN21, (2S,2′S)-N,N′-(1,2-ethynediyldi-4,1-phenylene)bis(1-((4-hydroxy-1-piperidinyl)(phenyl)acetyl)-2-pyrrolidinecarboxamide)] | 0.035
28 | COc1ccc2c(C(=O)N3CCC[C@H]3C(=O)Nc3ccc(C#Cc4ccc(NC(=O)[C@@H]5CCCN5C(=O)c5nc(Cl)cc6cc(OC)ccc56)cc4)cc3)nc(Cl)cc2c1 [Example D35, (2S,2′S)-N,N′-(1,2-ethynediyldi-4,1-phenylene)bis(1-((3-chloro-6-methoxy-1-isoquinolinyl)carbonyl)-2-pyrrolidinecarboxamide)] | 94
